Calls of active or inactive are those of the source.
Columns and labels:
[1] = molecular target: T1, Zinc finger protein mex-5 (Caenorhabditis elegans, UniProt Q9XUB2); experiment: potency of MEX-5 RNA-binding blockers – biochemical, C. elegans, fluorescence polarization, dose response (AID 1960)
T1 sequence (Q9XUB2 whole entry): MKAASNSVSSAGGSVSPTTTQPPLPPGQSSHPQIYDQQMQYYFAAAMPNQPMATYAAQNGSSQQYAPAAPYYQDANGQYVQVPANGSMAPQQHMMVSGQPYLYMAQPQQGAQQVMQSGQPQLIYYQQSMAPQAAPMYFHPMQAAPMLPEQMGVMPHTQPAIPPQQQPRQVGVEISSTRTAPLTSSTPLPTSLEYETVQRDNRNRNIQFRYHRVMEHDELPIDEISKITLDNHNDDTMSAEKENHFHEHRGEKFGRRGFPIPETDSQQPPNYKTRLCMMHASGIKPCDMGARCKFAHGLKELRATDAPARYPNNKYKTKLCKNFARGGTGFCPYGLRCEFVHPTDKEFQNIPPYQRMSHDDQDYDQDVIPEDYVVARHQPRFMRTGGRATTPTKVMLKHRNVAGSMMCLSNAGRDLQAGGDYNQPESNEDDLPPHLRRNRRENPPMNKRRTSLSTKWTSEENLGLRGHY

ORF 73 = molecular target: T2, ORF 73 (Human herpesvirus 8, UniProt O40947); experiment: KSHV LANA DNA-binding disruption – biochemical, fluorescence polarization, cherry-picked samples, dose response (AID 504725); design: species or system Human gammaherpesvirus 8;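 also: fluorescence polarization of a labeled DNA duplex reporting LANA DNA binding; potency is for inhibitors that block LANA binding to the DNA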
T2 sequence (O40947 whole entry): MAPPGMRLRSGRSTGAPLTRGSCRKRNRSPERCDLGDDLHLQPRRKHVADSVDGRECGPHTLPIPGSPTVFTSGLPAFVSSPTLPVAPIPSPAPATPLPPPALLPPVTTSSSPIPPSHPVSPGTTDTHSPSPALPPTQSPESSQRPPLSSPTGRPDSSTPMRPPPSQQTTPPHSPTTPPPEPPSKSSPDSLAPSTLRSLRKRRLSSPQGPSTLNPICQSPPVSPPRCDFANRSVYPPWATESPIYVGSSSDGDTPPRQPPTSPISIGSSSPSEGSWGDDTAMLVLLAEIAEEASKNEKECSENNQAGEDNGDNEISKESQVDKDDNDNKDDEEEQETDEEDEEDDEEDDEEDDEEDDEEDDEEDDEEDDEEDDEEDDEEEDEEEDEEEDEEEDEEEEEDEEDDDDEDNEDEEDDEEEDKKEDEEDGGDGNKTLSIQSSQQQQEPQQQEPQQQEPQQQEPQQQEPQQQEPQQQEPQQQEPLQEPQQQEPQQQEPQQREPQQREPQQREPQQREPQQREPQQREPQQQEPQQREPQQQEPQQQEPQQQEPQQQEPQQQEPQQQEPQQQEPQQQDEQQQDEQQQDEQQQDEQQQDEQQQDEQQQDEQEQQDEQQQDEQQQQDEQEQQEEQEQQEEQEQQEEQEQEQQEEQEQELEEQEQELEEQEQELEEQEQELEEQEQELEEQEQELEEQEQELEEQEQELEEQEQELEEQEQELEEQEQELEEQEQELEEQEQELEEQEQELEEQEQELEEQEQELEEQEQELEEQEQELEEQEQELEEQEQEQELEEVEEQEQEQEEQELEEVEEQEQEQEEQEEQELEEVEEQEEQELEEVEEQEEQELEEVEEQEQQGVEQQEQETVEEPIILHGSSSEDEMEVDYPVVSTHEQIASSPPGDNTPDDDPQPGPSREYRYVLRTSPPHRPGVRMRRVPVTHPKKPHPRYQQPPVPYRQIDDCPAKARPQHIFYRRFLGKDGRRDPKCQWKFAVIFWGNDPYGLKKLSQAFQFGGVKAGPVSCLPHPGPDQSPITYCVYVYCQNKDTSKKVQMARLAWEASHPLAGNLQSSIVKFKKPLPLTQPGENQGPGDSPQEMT

Beta-lactamase [2] = molecular target: Beta-lactamase (Pseudomonas aeruginosa, UniProt Q79MP6);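 also: biochemical dose-response test of metallo-beta-lactamase enzyme inhibition, read out by epi-absorbance; purified recombinant IMP-1 metallo-beta-lactamase with nitrocefin as substrate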
Beta-lactamase (Pseudomonas aeruginosa, UniProt Q79MP6), sequence (Q79MP6 whole entry): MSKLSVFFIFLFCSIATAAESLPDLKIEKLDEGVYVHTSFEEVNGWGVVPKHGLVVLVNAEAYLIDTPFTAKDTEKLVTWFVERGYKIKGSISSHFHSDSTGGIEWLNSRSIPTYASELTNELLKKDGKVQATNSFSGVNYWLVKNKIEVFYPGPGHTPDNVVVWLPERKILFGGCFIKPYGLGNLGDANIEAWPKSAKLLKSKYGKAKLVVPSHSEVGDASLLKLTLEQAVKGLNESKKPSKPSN

Insulin-degrading enzyme [3] = molecular target: T3, Insulin-degrading enzyme (Homo sapiens, UniProt P14735); experiment: recombinant IDE activation, cell-free – biochemical, fluorescence polarization, counter-screen for IDE activator project, dose response (AID 588681)
T3 sequence (P14735 whole entry): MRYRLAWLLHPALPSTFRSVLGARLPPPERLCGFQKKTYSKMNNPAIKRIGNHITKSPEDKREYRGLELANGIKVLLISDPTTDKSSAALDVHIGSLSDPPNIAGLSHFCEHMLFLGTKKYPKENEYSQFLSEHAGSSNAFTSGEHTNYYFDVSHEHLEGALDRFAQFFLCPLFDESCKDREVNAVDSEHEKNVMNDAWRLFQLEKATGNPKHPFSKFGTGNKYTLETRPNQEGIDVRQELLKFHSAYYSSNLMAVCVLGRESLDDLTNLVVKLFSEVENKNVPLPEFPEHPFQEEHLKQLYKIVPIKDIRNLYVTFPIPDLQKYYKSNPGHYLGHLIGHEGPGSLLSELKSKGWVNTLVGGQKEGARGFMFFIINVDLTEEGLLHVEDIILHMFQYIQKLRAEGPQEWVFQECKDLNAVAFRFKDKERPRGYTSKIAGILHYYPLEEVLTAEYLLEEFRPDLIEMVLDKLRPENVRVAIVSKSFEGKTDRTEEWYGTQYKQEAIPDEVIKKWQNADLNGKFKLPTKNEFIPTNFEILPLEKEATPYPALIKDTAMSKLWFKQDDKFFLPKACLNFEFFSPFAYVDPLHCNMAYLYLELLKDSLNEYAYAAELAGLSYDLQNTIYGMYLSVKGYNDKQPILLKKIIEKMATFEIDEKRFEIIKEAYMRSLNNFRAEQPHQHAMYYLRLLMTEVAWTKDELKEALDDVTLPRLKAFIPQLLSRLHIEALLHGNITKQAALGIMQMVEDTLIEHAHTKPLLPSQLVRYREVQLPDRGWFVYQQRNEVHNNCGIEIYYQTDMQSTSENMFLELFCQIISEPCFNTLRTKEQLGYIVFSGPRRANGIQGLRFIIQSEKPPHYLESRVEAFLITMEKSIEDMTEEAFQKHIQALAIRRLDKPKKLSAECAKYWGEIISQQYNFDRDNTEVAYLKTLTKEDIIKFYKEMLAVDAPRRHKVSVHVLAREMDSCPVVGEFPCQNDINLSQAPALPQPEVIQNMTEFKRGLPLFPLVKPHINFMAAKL

Keap1/Nrf2 = Keap1/Nrf2 (Homo sapiens, UniProt Q14145); experiment: disruptors of Keap1 binding to Nrf2 peptide – biochemical, fluorescence polarization, cherry-picked samples, dose response (AID 588683)
Keap1/Nrf2, sequence (Q16236 whole entry, the tested form may be a part): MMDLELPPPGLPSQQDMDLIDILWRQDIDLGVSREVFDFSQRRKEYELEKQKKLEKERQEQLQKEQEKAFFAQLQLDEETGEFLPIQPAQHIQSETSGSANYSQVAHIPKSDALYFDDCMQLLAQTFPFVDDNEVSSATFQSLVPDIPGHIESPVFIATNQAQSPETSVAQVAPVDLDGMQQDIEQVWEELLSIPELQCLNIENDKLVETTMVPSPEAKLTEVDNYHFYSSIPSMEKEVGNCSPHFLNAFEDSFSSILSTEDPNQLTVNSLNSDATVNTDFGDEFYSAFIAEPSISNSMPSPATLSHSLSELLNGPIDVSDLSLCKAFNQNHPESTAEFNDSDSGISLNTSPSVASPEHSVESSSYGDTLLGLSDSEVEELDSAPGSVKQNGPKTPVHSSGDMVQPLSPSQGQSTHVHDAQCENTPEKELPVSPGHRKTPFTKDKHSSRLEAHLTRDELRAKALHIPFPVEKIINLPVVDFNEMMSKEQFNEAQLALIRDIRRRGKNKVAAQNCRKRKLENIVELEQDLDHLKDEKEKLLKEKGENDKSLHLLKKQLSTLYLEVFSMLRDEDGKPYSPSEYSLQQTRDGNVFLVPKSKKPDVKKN
Keap1/Nrf2, sequence (Q14145 whole entry, the tested form may be a part): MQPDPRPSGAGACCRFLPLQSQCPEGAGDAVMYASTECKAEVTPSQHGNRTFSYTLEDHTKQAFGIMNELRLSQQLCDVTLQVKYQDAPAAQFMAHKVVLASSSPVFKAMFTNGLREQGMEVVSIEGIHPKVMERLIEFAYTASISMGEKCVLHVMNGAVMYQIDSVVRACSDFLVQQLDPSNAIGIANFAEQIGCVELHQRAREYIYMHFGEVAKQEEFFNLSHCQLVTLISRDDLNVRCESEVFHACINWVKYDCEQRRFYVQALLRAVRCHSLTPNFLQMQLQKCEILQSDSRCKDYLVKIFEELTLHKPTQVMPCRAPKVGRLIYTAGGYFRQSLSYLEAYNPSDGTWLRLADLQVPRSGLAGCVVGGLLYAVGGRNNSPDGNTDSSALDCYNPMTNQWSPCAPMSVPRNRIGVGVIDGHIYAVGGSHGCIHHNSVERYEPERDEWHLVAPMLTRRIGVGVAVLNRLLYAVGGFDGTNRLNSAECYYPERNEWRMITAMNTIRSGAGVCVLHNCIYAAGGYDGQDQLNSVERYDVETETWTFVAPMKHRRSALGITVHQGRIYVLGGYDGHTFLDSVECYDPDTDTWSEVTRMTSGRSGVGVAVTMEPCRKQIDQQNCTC

[4] = molecular target: T4, RNA-binding protein pos-1 (Caenorhabditis elegans, UniProt G5EF15); experiment: disruptors of C. elegans POS-1 RNA interaction – biochemical, fluorescence polarization, dose response (AID 1964);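 also: purified POS-1 fused to maltose binding protein made in E. coli; potency of compounds blocking POS-1 binding to fluorescent RNA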
T4 sequence (G5EF15 whole entry): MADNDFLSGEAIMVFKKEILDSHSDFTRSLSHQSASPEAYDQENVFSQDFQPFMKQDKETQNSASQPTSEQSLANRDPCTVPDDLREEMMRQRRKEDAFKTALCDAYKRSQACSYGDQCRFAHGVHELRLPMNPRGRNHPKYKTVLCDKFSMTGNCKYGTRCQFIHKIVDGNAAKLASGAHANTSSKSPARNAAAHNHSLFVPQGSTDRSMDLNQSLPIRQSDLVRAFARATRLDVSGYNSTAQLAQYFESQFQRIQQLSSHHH

Insulin-degrading enzyme [5] = molecular target: T3, Insulin-degrading enzyme; experiment: cellular IDE activation of Abeta substrate cleavage – fluorescence polarization, HEK cells, dose response (AID 588439); assay type: functional, cell-based
HEK293 [6] = experiment: optical interference in Abeta FP readout, dose response, artefact control for IDE activator project, biochemical, fluorescence polarization (AID 588442); assay type: functional, cell-based; details: Homo sapiens
HEK293 [7] = experiment: membrane integrity loss in HEK cells – cell-based, fluorescence, cytotoxicity control for IDE activator project, dose response (AID 588440); assay type: functional; details: Homo sapiens;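 also: cytotoxicity by LDH release measuring loss of membrane integrity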
Beta-lactamase [8] = molecular target: Beta-lactamase (Salmonella choleraesuis (strain SC-B67), UniProt Q5J463)
Beta-lactamase (Salmonella choleraesuis (strain SC-B67), UniProt Q5J463), sequence (Q5J463 whole entry): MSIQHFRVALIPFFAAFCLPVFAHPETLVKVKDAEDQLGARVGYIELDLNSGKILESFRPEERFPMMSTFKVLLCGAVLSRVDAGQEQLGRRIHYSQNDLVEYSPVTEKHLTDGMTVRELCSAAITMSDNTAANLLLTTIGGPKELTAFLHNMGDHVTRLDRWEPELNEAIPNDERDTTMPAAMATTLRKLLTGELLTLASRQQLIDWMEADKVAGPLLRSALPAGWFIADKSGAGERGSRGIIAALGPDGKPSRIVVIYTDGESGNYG

[9] = THP-1 cell cytotoxicity, dose response, cytotoxicity control, set 3 (AID 504852); assay type: functional; details: Mycobacterium tuberculosis
cells = assay type: functional
CHO-K1 = experiment: (§1) Counterscreen for antagonists of the orexin 1 receptor (OX1R; HCRTR1): Homogeneous time resolved fluorescence (HTRF)-based cell-based dose response assay to identify antagonists of the parental CHO-K1 cell line. [Related pubchem assays (depositor defined):AID434989, AID435008, AID463079, AID485270, AID492963, AID492964, AID492965, AID493232, AID504699, AID504701]; assay type: functional; details: Cricetulus griseus
Orexin receptor type 2 [10] = molecular target: T5, Orexin receptor type 2 (Homo sapiens, UniProt O43614); experiment: Counterscreen assay for antagonists of the orexin 1 receptor (OX1R; HCRTR1): Homogeneous Time Resolved Fluorescence (HTRF)-based cell-based dose response assay for antagonists of the orexin 2 receptor (OX2R; HCRTR2), run by assay provider.; assay type: functional
T5 sequence (O43614 whole entry): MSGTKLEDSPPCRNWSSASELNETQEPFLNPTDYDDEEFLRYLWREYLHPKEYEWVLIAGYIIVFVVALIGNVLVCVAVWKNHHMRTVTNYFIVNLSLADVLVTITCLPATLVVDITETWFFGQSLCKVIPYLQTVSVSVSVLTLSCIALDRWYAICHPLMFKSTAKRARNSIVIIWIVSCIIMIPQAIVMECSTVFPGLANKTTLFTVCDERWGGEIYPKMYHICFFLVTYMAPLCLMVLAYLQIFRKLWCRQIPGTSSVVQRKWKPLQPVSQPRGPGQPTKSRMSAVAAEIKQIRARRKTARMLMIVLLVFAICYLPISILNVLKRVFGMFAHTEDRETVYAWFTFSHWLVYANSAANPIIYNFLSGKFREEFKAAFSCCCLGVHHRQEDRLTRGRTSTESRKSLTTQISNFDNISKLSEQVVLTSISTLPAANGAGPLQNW

[11] = molecular target: T6, Orexin/Hypocretin receptor type 1 (Homo sapiens, UniProt O43613); experiment: Homogeneous Time Resolved Fluorescence (HTRF)-based cell-based high throughput dose response assay for antagonists of the orexin 1 receptor (OX1R; HCRTR1). [Related pubchem assays (depositor defined):AID434989, AID435008, AID463079, AID485270, AID492963, AID492964, AID492965, AID493232, AID504717, AID504718]; assay type: functional
T6 sequence (O43613 whole entry): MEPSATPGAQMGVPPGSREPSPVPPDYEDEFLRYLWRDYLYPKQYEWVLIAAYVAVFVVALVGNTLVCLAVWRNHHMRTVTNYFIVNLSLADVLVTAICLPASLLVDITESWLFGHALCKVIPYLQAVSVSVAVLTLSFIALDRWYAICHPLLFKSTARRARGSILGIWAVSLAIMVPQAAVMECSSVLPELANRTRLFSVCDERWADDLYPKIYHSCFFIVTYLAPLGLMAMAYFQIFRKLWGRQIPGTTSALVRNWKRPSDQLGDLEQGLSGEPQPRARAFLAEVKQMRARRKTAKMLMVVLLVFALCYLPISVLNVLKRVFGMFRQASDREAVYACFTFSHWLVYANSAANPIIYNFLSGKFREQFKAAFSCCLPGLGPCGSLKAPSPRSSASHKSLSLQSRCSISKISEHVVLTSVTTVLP

Orexin receptor type 2 [12] = molecular target: T5, Orexin receptor type 2; experiment: Counterscreen assay for antagonists of the orexin 1 receptor (OX1R; HCRTR1): Fluorescence-based cell-based dose response assay for antagonists of the orexin 2 receptor (OX2R; HCRTR2), run by assay provider.; assay type: functional
[13] = as §1, with “Fluorescence-based” for “Homogeneous time resolved fluorescence (HTRF)-based”, “cell-based high throughput” for “cell-based”, “CHO” for “CHO-K1”; assay type: functional
[14] = molecular target: T6, Orexin/Hypocretin receptor type 1; experiment: Fluorescence-based cell-based high throughput dose response assay for antagonists of the orexin 1 receptor (OX1R; HCRTR1). [Related pubchem assays (depositor defined):AID434989, AID435008, AID463079, AID485270, AID492963, AID492964, AID492965, AID493232, AID504717, AID504718]; assay type: functional
[15] = molecular target: Sphingosine 1-phosphate receptor 4 (Homo sapiens, UniProt O95977); experiment: Late-stage fluorescence-based dose-response cell-based counterscreen assay to identify agonists of the Sphingosine 1-Phosphate Receptor 3 (S1P3): Sphingosine 1-Phosphate Receptor 4 (S1P4) agonist assay.; assay type: functional
Sphingosine 1-phosphate receptor 4, sequence (O95977 whole entry): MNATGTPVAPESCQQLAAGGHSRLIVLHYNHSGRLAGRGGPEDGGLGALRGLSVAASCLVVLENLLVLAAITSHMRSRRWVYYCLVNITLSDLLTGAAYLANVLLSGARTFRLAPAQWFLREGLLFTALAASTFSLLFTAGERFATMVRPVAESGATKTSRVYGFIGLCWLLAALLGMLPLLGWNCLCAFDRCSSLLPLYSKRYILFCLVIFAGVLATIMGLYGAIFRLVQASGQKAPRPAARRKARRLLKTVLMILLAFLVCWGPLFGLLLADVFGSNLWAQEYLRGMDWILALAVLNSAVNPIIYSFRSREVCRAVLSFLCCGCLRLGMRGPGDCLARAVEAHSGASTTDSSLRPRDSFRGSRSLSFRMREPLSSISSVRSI

[16] = molecular target: Sphingosine 1-phosphate receptor 2 (Homo sapiens, UniProt O95136); experiment: Late-stage fluorescence-based dose-response cell-based counterscreen assay to identify agonists of the Sphingosine 1-Phosphate Receptor 3 (S1P3): Sphingosine 1-Phosphate Receptor 2 (S1P2) agonist assay.; assay type: functional
Sphingosine 1-phosphate receptor 2, sequence (O95136 whole entry): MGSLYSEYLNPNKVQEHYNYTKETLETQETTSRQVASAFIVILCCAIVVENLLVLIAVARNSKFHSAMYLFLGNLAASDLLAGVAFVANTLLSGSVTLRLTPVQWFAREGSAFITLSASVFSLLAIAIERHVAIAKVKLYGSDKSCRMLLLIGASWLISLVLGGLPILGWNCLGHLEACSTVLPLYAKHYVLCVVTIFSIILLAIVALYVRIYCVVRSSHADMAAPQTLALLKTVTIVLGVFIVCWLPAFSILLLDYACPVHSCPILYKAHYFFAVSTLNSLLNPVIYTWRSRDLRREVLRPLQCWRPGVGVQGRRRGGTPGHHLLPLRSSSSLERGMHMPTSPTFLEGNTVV

With `O=C1c2cccc3c(O)ccc(c23)C(=O)N1c1ccc(Cl)cc1` as the molecule, how does the EC50 [1] read?
Its EC50 is 0.289 µM (inconclusive).

What about the AC50 (ORF 73) of the same molecule?
The AC50 was 1.93 µM (active).

What about the IC50 (Beta-lactamase [2]) of the same molecule?
The IC50 was 19.8 µM (inactive).

What about the EC50 (Insulin-degrading enzyme [3]) of the same molecule?
Its EC50 is > 54.7 µM (inactive).

And the AC50 (Keap1/Nrf2)?
The AC50 was 2.53 µM (active).

What about the EC50 [4] of the same molecule?
The EC50 was 7.11 µM (inconclusive).

What about the EC50 (Insulin-degrading enzyme [5]) of the same molecule?
Its EC50 is > 54.7 µM (inactive).

And the EC50 (HEK293 [6])?
Its EC50 is > 54.7 µM (inactive).

And the IC50 (HEK293 [7])?
The IC50 was > 89.2 µM (inactive).

And the IC50 (Beta-lactamase [8])?
Its IC50 is 7.95 µM (active).

For `Cc1ccc(NC(=O)COC(=O)CCc2c[nH]c3ccccc23)cc1[N+](=O)[O-]`, which CC50 [9] is on record?
Its CC50 is > 100 µM (active).

What about the IC50 (cells) of the same molecule?
Its IC50 is 1.84 µM (active).

With `Cc1ccc(C)n1-c1nn(S(=O)(=O)c2cccc3cccnc23)c2cccc(F)c12` as the molecule, how does the IC50 (CHO-K1) read?
The IC50 was > 66.2 µM (inactive).

And the IC50 (Orexin receptor type 2 [10])?
Its IC50 is > 50 µM (inactive).

What about the IC50 [11] of the same molecule?
The IC50 was 1.93 µM (active).

What about the IC50 (Orexin receptor type 2 [12]) of the same molecule?
Its IC50 is 29.3 µM (inactive).

What about the IC50 [13] of the same molecule?
Its IC50 is > 49.8 µM (inactive).

What about the IC50 [14] of the same molecule?
The IC50 was 45 µM (inactive).

What does the source list for `CC1CCCCC1N(C(=O)c1cc(C2CC2)on1)C1CCCC1` (stereo not given)?
EC50 [15]: > 50 µM (inactive); EC50 [16]: > 50 µM (inactive)

From ChEMBL document CHEMBL1201862, “PubChem BioAssay data set” (2004)
